Reference: ChEMBL document CHEMBL1201862, “PubChem BioAssay data set” (2004)
Calls of active or inactive are those of the source.

Columns and labels:
[1] = target: T1, Methionyl-tRNA synthetase, putative (Trypanosoma brucei brucei, UniProt Q38C91); assay type: functional, Trypanosoma brucei brucei strain 927/4 GUTat10.1
T1 sequence (Q38C91 whole entry): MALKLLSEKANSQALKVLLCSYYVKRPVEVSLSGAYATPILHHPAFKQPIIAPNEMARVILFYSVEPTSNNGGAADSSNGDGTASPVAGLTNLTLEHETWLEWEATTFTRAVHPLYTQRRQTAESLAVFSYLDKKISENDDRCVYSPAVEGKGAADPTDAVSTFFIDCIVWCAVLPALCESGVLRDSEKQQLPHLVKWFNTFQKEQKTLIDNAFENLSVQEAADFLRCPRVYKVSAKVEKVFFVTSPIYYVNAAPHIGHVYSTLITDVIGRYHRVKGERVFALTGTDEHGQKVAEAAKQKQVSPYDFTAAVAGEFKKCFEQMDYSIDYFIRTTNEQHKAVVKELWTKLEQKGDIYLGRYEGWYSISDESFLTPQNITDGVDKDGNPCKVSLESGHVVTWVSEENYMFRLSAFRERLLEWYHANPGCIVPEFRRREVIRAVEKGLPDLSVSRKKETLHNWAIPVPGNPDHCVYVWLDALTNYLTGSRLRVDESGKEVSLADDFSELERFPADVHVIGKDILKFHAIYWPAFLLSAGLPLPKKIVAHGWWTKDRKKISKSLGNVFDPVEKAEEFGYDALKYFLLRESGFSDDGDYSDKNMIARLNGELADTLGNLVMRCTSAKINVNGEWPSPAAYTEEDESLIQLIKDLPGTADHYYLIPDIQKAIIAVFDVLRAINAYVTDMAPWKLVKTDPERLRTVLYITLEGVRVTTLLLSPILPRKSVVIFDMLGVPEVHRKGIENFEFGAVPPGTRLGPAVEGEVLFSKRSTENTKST

[2] = Counterscreen for inhibitors of Trypanosoma brucei methionyl tRNA synthetase (MetRS): Luminescence-based cell-based high throughput dose response assay to identify compounds that are cytotoxic to Jurkat human T lymphocyte cells.; assay type: functional
[3] = target: T1, Methionyl-tRNA synthetase, putative; assay type: functional, Trypanosoma brucei brucei strain 927/4 GUTat10.1; remark: listed apart in the source
[4] = target: T2, Apoptotic protease-activating factor 1 (Homo sapiens, UniProt O14727); assay type: functional
T2 sequence (O14727 whole entry): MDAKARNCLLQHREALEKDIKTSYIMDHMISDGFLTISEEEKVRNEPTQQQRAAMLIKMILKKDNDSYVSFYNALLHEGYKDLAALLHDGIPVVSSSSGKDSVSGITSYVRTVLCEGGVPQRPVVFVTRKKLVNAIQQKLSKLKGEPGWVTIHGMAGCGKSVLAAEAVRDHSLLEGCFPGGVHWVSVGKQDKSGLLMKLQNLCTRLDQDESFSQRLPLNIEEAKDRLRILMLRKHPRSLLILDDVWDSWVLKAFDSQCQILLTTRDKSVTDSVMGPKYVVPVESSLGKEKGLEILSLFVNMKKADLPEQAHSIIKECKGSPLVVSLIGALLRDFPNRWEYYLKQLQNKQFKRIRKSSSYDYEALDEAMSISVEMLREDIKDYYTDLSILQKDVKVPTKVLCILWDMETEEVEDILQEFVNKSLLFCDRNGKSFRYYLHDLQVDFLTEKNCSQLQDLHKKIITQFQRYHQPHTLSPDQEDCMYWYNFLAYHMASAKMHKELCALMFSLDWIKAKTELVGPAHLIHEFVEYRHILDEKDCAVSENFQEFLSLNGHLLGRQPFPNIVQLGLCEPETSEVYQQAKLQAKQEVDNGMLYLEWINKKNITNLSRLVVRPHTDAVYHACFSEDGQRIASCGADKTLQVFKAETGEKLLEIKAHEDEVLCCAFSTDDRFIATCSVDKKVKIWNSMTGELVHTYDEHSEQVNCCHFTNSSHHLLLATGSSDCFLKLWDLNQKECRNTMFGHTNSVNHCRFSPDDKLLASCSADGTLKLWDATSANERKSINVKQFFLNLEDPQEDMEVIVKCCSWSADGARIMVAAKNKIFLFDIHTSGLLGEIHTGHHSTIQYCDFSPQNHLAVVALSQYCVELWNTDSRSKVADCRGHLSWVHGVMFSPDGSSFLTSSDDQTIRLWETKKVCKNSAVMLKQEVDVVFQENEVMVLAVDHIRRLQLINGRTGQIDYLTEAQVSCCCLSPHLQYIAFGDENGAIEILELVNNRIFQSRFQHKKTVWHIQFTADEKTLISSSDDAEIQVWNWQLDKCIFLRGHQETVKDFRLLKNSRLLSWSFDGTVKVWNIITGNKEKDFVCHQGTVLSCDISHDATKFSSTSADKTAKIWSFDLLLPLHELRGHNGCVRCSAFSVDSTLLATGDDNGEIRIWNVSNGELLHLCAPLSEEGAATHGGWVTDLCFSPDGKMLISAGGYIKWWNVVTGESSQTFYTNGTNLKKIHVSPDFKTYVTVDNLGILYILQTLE

[5] = target: T3, Adenosylmethionine-8-amino-7-oxononanoate aminotransferase (Mycobacterium tuberculosis, UniProt P9WQ81); test: Mycobacterium tuberculosis BioA enzyme inhibitor Measured in Biochemical System Using Plate Reader - 2163-02_Inhibitor_Dose_CherryPick_Activity.; assay type: functional, Mycobacterium tuberculosis UT205
T3 sequence (P9WQ81 whole entry): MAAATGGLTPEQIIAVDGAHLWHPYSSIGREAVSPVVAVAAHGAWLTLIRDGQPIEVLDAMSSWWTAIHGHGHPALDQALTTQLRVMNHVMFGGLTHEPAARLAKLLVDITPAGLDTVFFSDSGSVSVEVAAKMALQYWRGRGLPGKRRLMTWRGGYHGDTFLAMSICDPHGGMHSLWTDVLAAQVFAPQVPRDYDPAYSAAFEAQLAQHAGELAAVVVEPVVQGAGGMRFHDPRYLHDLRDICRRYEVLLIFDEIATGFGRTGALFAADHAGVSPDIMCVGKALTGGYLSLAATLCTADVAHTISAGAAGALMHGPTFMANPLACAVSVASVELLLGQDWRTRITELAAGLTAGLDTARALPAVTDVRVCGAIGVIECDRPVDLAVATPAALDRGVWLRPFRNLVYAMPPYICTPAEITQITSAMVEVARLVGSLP

Cytochrome P450 3A4 = Cytochrome P450 3A4 (Homo sapiens, UniProt P08684);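 also: CYP3A4 tested as one member of a cytochrome P450 panel screen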
Sequence of Cytochrome P450 3A4 (P08684 whole entry): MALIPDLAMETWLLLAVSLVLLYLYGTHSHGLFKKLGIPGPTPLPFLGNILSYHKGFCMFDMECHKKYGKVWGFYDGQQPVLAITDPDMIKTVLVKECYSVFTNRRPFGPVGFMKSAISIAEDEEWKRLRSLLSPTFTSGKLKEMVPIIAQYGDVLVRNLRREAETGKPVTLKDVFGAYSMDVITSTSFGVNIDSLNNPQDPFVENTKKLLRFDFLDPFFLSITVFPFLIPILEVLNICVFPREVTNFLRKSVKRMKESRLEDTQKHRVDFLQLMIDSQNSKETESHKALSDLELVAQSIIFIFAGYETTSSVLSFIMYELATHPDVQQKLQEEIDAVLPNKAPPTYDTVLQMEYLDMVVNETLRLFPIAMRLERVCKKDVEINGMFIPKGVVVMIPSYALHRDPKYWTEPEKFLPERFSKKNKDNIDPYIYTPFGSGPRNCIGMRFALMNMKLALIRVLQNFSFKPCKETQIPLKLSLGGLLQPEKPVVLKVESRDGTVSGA

Cytochrome P450 2D6 = Cytochrome P450 2D6 (Homo sapiens, UniProt P10635);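 also: CYP2D6 member of a cytochrome P450 panel assay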
Sequence of Cytochrome P450 2D6 (P10635 whole entry): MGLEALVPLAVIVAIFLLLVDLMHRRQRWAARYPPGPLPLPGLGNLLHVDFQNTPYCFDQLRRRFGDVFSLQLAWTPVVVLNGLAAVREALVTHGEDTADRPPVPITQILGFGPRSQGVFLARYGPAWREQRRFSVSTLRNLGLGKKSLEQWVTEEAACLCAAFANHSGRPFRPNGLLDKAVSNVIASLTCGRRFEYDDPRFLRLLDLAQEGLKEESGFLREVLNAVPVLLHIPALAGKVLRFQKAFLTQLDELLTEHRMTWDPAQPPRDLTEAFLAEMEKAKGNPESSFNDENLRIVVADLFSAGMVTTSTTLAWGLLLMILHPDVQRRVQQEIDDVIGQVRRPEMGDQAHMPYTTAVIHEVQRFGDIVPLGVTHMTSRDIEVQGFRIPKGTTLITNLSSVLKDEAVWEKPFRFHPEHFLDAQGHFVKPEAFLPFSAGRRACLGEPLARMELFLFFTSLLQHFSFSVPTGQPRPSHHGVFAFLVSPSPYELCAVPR

Vero [6] = test: cells; assay type: functional, cell-based; conditions: Chlorocebus sabaeus
Vero [7] = test: cells; assay type: functional; conditions: Chlorocebus sabaeus
Cytochrome P450 1A2 = target: T4, Cytochrome P450 1A2 (Homo sapiens, UniProt P05177);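 also: PubChem cytochrome P450 panel assay, CYP1A2 panel member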
T4 sequence (P05177 whole entry): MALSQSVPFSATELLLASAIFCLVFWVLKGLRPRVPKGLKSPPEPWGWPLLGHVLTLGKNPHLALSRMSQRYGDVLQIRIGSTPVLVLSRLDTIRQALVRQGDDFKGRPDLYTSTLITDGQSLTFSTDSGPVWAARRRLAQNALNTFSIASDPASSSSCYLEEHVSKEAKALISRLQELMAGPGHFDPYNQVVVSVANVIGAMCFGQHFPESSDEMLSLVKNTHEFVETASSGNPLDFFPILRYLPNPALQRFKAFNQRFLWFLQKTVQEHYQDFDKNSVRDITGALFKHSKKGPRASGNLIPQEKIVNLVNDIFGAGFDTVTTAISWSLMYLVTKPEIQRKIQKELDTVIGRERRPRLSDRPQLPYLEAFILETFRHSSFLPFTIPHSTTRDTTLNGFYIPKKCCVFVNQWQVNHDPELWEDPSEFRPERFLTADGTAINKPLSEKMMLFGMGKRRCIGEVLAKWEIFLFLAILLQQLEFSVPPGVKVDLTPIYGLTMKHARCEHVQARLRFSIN

[8] = test system: Streptococcus sp. 'group A'; test: growth inhibition of control SK(-) GAS strain, dose response, counter-screen for streptokinase expression inhibitor project, luminescence, kanamycin, BacTiterGlo, confirmation (AID 1900); assay type: functional, organism-based
Streptokinase A = target: T5, Streptokinase A (Streptococcus pyogenes serotype M1, UniProt P10520); test: S. pyogenes streptokinase expression inhibitors, potency, dose response, plasminogen activation absorbance, OD405 (AID 1914); assay type: functional, Streptococcus pyogenes M1 GAS;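 also: secreted streptokinase activity via plasminogen activation per viability signal from cell pellet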
T5 sequence (P10520 whole entry): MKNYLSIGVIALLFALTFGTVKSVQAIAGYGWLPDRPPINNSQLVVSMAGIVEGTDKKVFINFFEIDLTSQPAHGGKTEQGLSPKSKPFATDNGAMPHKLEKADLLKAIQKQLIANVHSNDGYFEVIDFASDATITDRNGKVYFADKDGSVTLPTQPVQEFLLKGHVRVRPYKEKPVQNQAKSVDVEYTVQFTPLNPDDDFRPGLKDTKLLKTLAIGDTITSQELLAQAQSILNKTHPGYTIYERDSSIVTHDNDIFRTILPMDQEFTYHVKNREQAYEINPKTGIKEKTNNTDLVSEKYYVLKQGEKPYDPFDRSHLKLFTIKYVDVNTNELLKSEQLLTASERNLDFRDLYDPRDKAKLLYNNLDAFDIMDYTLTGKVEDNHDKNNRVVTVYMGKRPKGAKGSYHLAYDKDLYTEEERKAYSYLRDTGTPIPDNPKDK

Streptococcus = test: Group A Streptococcus viability loss, dose response, counter-screen for streptokinase expression inhibitor project, luminescence, BacTiterGlo (AID 1915); assay type: functional, organism-based;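 also: potency for reduction of bacterial viability or growth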
H9c2 = test: cells; assay type: functional, cell-based; conditions: Rattus norvegicus, H9c2, Myocardium;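 also: confirmatory concentration-response retest of ultra-high-throughput screening hits for modulation of myocardial damage; cell death induced by hydrogen peroxide oxidative stress; compound pretreatment for 60 min then peroxide exposure for 2 h; potency is for protecting the cells against peroxide damage rather than for killing them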
Albumin = Albumin (Bos taurus, UniProt P02769); test: Counterscreen for inhibitors of T-cell receptor (TCR)-CD3 interaction: Fluorescence-based biochemical high throughput dose response assay to identify inhibitors of T-cell receptor (TCR)-CD3 interaction using a TAMRA-labeled BSA probe.; assay type: functional
Sequence of Albumin (P02769 whole entry): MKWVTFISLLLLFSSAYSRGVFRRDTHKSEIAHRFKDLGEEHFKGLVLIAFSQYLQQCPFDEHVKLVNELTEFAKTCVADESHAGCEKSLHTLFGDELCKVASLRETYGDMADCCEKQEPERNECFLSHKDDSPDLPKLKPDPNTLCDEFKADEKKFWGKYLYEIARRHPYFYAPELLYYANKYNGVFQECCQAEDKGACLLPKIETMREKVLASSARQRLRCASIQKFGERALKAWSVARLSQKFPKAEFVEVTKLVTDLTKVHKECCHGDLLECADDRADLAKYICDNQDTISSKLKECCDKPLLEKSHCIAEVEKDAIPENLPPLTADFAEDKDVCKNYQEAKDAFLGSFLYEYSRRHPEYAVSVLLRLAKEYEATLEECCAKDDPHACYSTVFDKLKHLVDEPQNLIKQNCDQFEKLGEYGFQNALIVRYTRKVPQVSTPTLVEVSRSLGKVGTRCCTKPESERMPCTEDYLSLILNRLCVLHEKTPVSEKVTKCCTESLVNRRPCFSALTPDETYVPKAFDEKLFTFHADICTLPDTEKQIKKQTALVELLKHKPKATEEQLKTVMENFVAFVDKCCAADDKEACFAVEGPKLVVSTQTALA

[9] = intracellular Trypanosoma cruzi inhibitors in host cells – cell-based, plate reader, cherry-pick samples, set 3, dose response (AID 651818); assay type: functional;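 also: compounds incubated with infected cells for about four days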
[10] = target: Potassium channel subfamily K member 9 (Homo sapiens, UniProt Q9NPC2); test: TASK3 (KCNK9) channel inhibitors, thallium flux, SAR follow-up, selectivity assay for TASK1 inhibitor project, cell-based, FluxOR thallium flux, concentration-response (AID 652211); assay type: functional;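 also: potency is for inhibitors of the channel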
Sequence of Potassium channel subfamily K member 9 (Q9NPC2 whole entry): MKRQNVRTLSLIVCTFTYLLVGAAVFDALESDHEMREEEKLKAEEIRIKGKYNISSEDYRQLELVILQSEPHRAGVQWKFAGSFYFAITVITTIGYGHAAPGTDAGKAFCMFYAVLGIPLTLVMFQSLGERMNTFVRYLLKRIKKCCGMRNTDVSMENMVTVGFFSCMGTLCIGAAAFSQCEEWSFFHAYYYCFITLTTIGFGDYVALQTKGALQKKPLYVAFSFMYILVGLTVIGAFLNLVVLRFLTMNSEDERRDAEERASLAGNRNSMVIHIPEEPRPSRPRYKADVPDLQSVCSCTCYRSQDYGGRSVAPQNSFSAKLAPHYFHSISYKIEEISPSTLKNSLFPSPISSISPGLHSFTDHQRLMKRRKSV

O=C(COC(=O)CCCOc1ccc(Cl)cc1Cl)NCc1ccccc1
IC50 [1]: 16.4 µM (inactive)
IC50 [2]: 83.3 µM (inactive)
IC50 [3]: 11.3 µM (inactive)

N#Cc1c(N(CCO)CCO)nc(N)c2c(N)nc3c(c12)CC(=O)N3Cc1cccs1
IC50 [4]: 20.7 µM (active)

O=C(Nc1ncc2c(n1)CC(c1cccc(Cl)c1)CC2=O)c1ccco1 (configuration not stated)
AC50 [5]: 1.95 µM (active)

CCCc1nnc(NC(=O)CCC(=O)N2CCN(c3ccccn3)CC2)s1
AC50 (Cytochrome P450 3A4): inconclusive

COc1ccc(-c2nc3cnc(N4CCN(C)CC4)nc3n(CCc3ccccc3)c2=O)cc1
AC50 (Cytochrome P450 2D6): 25.1 µM (inconclusive)
AC50 (Cytochrome P450 3A4): inconclusive

O=C(c1cccc(S(=O)(=O)N2CCc3ccccc32)c1)N1CCN(c2ccccn2)CC1
IC50 (Vero [6]): 6.82 µM (active)
CC50 (Vero [7]): 18.9 µM (active)

COc1cccc(NC(=O)CN(C)CC(=O)Nc2ccc(Br)cc2)c1
IC50 [1]: 13.2 µM (inactive)
IC50 [2]: 83.3 µM (inactive)
IC50 [3]: 51.2 µM (inactive)

COc1cc(C(=O)N2CCN(C(=O)c3ccccc3)CC2)cc(OC)c1OC
AC50 (Cytochrome P450 1A2): 2.51 µM (inconclusive)
AC50 (Cytochrome P450 3A4): inconclusive

Cc1cc(C)c(C)c(S(=O)(=O)N2CCC(C(=O)NNC(=O)c3ccccc3O)CC2)c1C
EC50 [8]: 17 µM (active)
EC50 (Streptokinase A): > 150 µM (not active)
EC50 (Streptococcus): > 150 µM (not active)
IC50 (H9c2): 31.7 µM (inactive)
IC50 (Albumin): > 94.1 µM (inactive)

CCOc1ccc(CCNC(=O)c2cnc(C)cn2)cc1OCC
AC50 [5]: 2.54 µM (active)

O=C1NC(=S)NC1=Cc1ccco1
IC50 (Albumin): > 94.1 µM (inactive)

CCc1nc2ccc(Br)cc2c(=O)n1-c1ccccc1C(F)(F)F
AC50 [5]: 0.966 µM (active)

Cc1ccc(S(=O)(=O)N2CCC(C(=O)NNC(=O)c3ccccc3O)CC2)cc1
IC50 (Albumin): > 94.1 µM (inactive)

C[C@H](CO)N1C[C@H](C)[C@H](CN(C)Cc2ccc(Oc3ccccc3)cc2)Oc2c(NC(=O)Nc3cccc4ccccc34)cccc2C1=O
AC50 [9]: 3.24 µM (active)

C[C@H]1CN([C@@H](C)CO)C(=O)Cc2cc(NC(=O)Nc3ccc(C(F)(F)F)cc3)ccc2O[C@H]1CN(C)Cc1ccc2c(c1)OCO2
AC50 [9]: 4.99 µM (active)

C[C@@H]1CN([C@H](C)CO)C(=O)Cc2cc(NS(=O)(=O)c3cccs3)ccc2O[C@@H]1CN(C)Cc1ccc(C(=O)Nc2ccccc2N)cc1
AC50 [9]: 4.03 µM (active)

CS(=O)(=O)N1[C@H](C(=O)NCc2ccncc2)[C@@H](CO)[C@@H]2Cn3c(ccc(C4=CCCCC4)c3=O)[C@@H]21
AC50 [5]: 6.52 µM (active)

C[C@@H]1CN([C@H](C)CO)C(=O)Cc2cc(NC(=O)Cc3cn(C)c4ccccc34)ccc2O[C@H]1CN(C)Cc1ccc(C(F)(F)F)cc1
AC50 [9]: 3.42 µM (active)

CC(C)Oc1ccccc1C(=O)Nc1cccc(NC(=O)c2ccccc2OC(F)(F)F)c1
IC50 [10]: 0.07 µM (active)

COc1ccccc1C(=O)Nc1cccc(NC(=O)c2ccccc2C(C)C)c1
IC50 [10]: 0.74 µM (active)

C/C(=N/OCO/N=C(\C)c1ccccc1)c1ccccc1
IC50 (Vero [6]): > 25 µM (active)
